We go through two compounds from PubChem BioAssay (NCI).

Each structure is given as a SMILES string.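 Five compound concentrations were applied to cells in 96-well plates for 48 hours; endpoints were derived by simple linear interpolation of the resulting dose-response curve. GI50 = concentration required for 50% inhibition of growth. TGI: concentration producing complete growth inhibition.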

Among the test systems are SF-295 CNS; DU-145 prostate; SF-268 CNS; MCF7 breast; SR leukemia; NCI-H522 lung; SK-MEL-2 melanoma; NCI-H23 lung; NCI-H226 lung; A549 NSCLC.
What all share (assay): growth of human tumour cells (NCI), 48 h

Regarding `CCn1nc(C#Cc2c(C)ccc3c(Nc4ccc(Cl)cc4)nccc23)c2c(N)ncnc21`, the GI50 is 2.48 µM with SF-295 CNS; 5.74 µM with DU-145 prostate; 5.36 µM with SF-268 CNS; 2.49 µM in the experiment on MCF7 breast; 1.01 µM in the experiment on SR leukemia; 2.39 µM in the experiment on NCI-H522 lung. Also, the GI50 with SK-MEL-2 melanoma is 1.92 µM; in the experiment with NCI-H23 lung, 3.58 µM; in the experiment with NCI-H226 lung, 3.29 µM; in the experiment with A549 NSCLC it was 4.58 µM. The TGI was 11.6 µM in the experiment on SF-295 CNS; greater than 100 µM in the experiment on DU-145 prostate; greater than 100 µM with SF-268 CNS; greater than 100 µM with MCF7 breast; greater than 100 µM in the experiment on SR leukemia; 86.9 µM in the experiment on NCI-H522 lung. Besides, the TGI is 6.53 µM with SK-MEL-2 melanoma, greater than 100 µM with NCI-H23 lung, 12.9 µM with NCI-H226 lung and greater than 100 µM with A549 NSCLC.
`C=C(C)[C@@H]1CC[C@]2(C(=O)OC)CC[C@]3(C)[C@H](CC[C@@H]4[C@@]5(C)CC/C(=N\OCCC(=NCCC#N)NOCCC#N)C(C)(C)[C@@H]5CC[C@]43C)[C@@H]12`: the GI50 in the experiment with SF-295 CNS is 21.4 µM; in the experiment on DU-145 prostate, 13.4 µM; with SF-268 CNS it was 11.4 µM; with MCF7 breast, 3.68 µM; in the experiment with SR leukemia, 2.87 µM; with NCI-H522 lung it was 8.34 µM. Besides, the GI50 was 13.8 µM in the experiment with SK-MEL-2 melanoma, 7.59 µM in the experiment with NCI-H23 lung, 5.43 µM in the experiment with NCI-H226 lung and 5.27 µM in the experiment on A549 NSCLC. Moreover, the TGI in the experiment with SF-295 CNS was greater than 50 µM; with DU-145 prostate, greater than 50 µM; in the experiment with SF-268 CNS, greater than 50 µM; in the experiment on MCF7 breast, greater than 50 µM; in the experiment with SR leukemia, 16.5 µM; in the experiment with NCI-H522 lung, greater than 50 µM. Also, the TGI with SK-MEL-2 melanoma was greater than 50 µM; with NCI-H23 lung, greater than 50 µM; with NCI-H226 lung, 15.5 µM; in the experiment with A549 NSCLC, greater than 50 µM.
